What was measured:
[1] = target: T1, R50A/K54A mutant AtHMGB3 (Arabidopsis thaliana, UniProt P93047, K54A/R50A); assay: Callose deposition with mutant R50A/K54A AtHMGB3; settings: in vivo
T1 construct: providing a full length Arabidopsis thaliana HMGB1 or HMGB3 (AtHMGB1 or AtHMGB3) protein; made in house
Description: (§1) Arabidopsis leaves were collected 15 h after infiltration with 100 nM AtHMGB3 or 100 nM Pep1, and then immediately immersed in alcoholic lactophenol (phenol:glycerol:lactic acid:water:ethanol=1:1:1:1:8) to destain the chlorophyll. To remove the background fluorescence, destained leaves were treated with toluidine blue O solution (0.05% toluidine blue O, 0.1 M sodium acetate, pH 4.4) for 30 min, and then rinsed twice with 150 mM K2HPO4 (pH 9.5). Callose was stained with aniline blue solution (0.02% aniline blue, 150 mM K2HPO4, pH 9.5) for 30 min in the absence of light. The aniline blue-stained leaves were mounted with 25% glycerol and analyzed using a Leica DM5500 epifluorescence microscope. The number of callose loci was quantified using an ImageJ (NIH).
Thus, these residues (R50 and K54) were mutated to Ala, and the resulting mutant AtHMGB3 tested for its ability to activate MPK3/6 and induce callose deposition in the absence or presence of SA. The R50A/K54A mutant AtHMGB3 retained its ability to activate MPK3/6 and induce callose deposition, but inhibition of these activities by SA was lost (FIG. 7H,I and FIG. 8).

[2] = target: T2, AtHMGB3 (Arabidopsis thaliana, UniProt P93047); settings: co-infiltration of 1-10 μM SA, 1 μM AtHMGB3
T2 sequence (P93047 1-141): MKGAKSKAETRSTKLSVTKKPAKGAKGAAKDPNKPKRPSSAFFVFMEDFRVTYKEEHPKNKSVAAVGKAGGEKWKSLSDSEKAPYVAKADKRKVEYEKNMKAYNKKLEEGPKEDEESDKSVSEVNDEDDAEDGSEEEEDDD
Description: To detect the phosphorylation of Arabidopsis MAPKs (MPK3/4/6), 3 to 4 week-old soil grown Arabidopsis leaves were infiltrated with 1 μM AtHMGB3 or 1 μM Pep1 peptide ([…]; synthesized by GenScript USA Inc.). Two leaf disks were cut from the leaf center of two different leaves using a cork borer (diameter=0.7 cm) and immediately frozen and ground to fine powder in liquid nitrogen. […] The protein concentration of supernatant was measured using the Bradford reagent (Bio-Rad). Forty μg of proteins per sample was separated on the 8% SDS-PAGE and transferred to a PVDF membrane for immunoblotting using the anti-phospho-p44/42 MAPK antibody (Cell Signaling Technology). The large subunit of Rubisco was visualized by Coomassie Brilliant Blue (CBB) staining of the PVDF membrane in order to assess consistency of loading.

[3] = system: LPS-induced expression of COX-2, IL-6 and TNFα; assay: LPS-induced cytokine and COX-2 gene expression in human macrophages (qPCR); assay type: cell-based; settings: 10 ng/ml LPS, 100 μM SA or 1 μM ac3AESA
Description: Human HeLa cells were grown in T75 flasks in DMEM medium supplemented with penicillin (10,000 IU/mL) streptomycin ([…]), and 10% fetal calf serum. Ptgs2−/− MEFs were derived from Ptgs2−/− E16 mouse embryos, obtained from the mating of Ptgs2+/− mice purchased from Taconic Biosciences. PBMCs were isolated from buffy coats of donor blood (Hospital of Magenta, Milan, Italy) by Ficoll gradient centrifugation (Lymphoprep; AXIS-SHIELD. CD14+ monocytes were isolated by positive immunoselection (CD14 Microbeads; Miltenyi Biotec) according to the manufacturer's instructions, and differentiated into macrophages using X-Vivo medium supplemented with 1% heat inactivated human serum, GM-CSF, and M-CSF.
Total RNAs were isolated using the Illustra RNAspin Mini kit (GE Healthcare), and complementary DNA (cDNA) was obtained by retro-transcription with oligo(dT) primers (Invitrogen, Carlsbad, Calif., USA) and SuperScript II Reverse Transcriptase (Invitrogen) following the manufacturers' instructions. Quantitative real-time PCR was performed using a LightCycler480 (Roche Molecular Diagnostics), in duplicates, using SYBR Green I master mix and the oligonucleotides listed in Table of primers below. The ΔCt method was used for quantification, and the β-actin gene was used for normalization.

[4] = target: T2, AtHMGB3; assay: Photoaffinity labeling of AtHMGB3 with 4AzSA, competition by SA; settings: 50 μM 4AzSA, increasing concentrations of SA
[5] = target: T3, full-length HMGB1 (Homo sapiens, UniProt P09429); assay: WaterLOGSY NMR with HMGB1; assay type: binding; settings: 6 mM SA or 5 mM ac3AESA, 20 μM protein
T3 construct: (i) full length: residues 2-215; hexaHis (TEV-cleavable) (N, cleaved yes); made in house
T3 sequence (P09429 2-215): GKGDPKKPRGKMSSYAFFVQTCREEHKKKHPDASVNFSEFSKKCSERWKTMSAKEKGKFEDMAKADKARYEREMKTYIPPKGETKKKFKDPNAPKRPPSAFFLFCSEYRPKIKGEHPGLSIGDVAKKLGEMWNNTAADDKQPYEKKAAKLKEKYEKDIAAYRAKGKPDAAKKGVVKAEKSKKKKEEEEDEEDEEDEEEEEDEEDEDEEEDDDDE
Source text: NMR can be used to detect protein ligand interactions either by protein-detected experiments (Lepre, Moore et al. 2004), detecting changes in the frequencies of resonances of the protein sample due to ligand binding (protein-detected chemical shift perturbation (CSP) experiments), or by ligand-detected experiments (Lepre, Moore et al. 2004), in which NMR properties of the ligands due to ligand-protein interactions are detected. Protein-detected ligand binding experiments are usually done using isotope-enriched protein samples which can be studied by isotope-filtered NMR experiments, including for example ^15N-^1H-HSQC (Kay, Keifer et al. 1992). Ligand-detected experiments include the Waterlogsy experiment (Meyer and Peters 2003, Lepre, Moore et al. 2004, Furihata, Shimotakahara et al. 2008), which detects interactions in the ternary complex formed by the protein, the ligand, and one or more water molecules, and the Saturation Transfer Difference (STD) NMR experiments (Mayer and Meyer 2001, Lepre, Moore et al. 2004, Wang, Liu et al. 2004), which detects magnetization transfer from the protein to the ligand in the protein-ligand complex. The Waterlogsy experiment is a more sensitive experiment, typically employed to detect qualitatively if there is an interaction between protein and ligand. […]

[6] = system: Pep1; assay: Callose staining: Pep1-induced callose deposition in Arabidopsis leaves; assay type: in vivo, Arabidopsis thaliana; settings: 100 nM Pep1, 15 h
Description: as §1

T1 sequence (P93047 whole entry R50A/K54A): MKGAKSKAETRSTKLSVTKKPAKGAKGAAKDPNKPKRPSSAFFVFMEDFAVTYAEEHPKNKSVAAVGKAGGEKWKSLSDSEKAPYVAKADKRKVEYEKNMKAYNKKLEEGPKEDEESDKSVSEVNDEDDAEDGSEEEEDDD

Structure (SMILES): O=C(O)c1ccccc1O [SA, salicylic acid]
- inhibition by SA of callose deposition induced by R50A/K54A AtHMGB3 [1]: lost
- effect on MPK3/6 activation by AtHMGB3 [2]: blocked
- effect on LPS-induced expression of cytokine and COX-2 genes [3]: did not suppress
- inhibition of crosslinking of 4AzSA to AtHMGB3 [4]: effectively inhibited
- WaterLOGSY binding to HMGB1 [5]: binds
- effect on Pep1-induced callose deposition [6]: unaffected

Reference: patent publication US20180045715A1, “STRUCTURE AND FUNCTION OF THE SALICYCLIC ACID BINDING SITES ON HUMAN HMGB1 AND METHODS OF USE THEREOF FOR THE RATIONAL DESIGN OF BOTH SALICYCLIC ACID DERIVATIVES AND OTHER AGENTS THAT ALTER ANIMAL AND PLANT HMGBS ACTIVITIES” (Boyce Thompson Institute for Plant Research, Inc., priority 2015, published 2018)
